# Assay results: patent publication US8058243B2, “Method for treating a brain cancer with ifenprodil” (HSC Research and Development Limited Partnership, priority 2006, dated 2011)
# Where a name gives a salt, the structure may show the parent alone. Read-outs that look alike come from different tables or passages of the source.
# Test system: murine neural precursor cells (neurosphere cultures)
# Experiment: HTS of LOPAC library against secondary neurosphere cultures, MTT proliferation assay at 3 μM, day 7 (z score, P value)
# Assay type: cell-based, mouse
# [1] = LOPAC library screen, 3 μM, MTT, neurosphere cultures
# [2] = LOPAC primary screen, neurosphere MTT proliferation, 3 μM, day 7
# [3] = yes/no: significantly inhibited neurosphere proliferation in primary screen
# [4] = LOPAC library screen, 3 μM, MTT, secondary neurosphere cultures, day 7
# [5] = yes = significantly inhibited neurosphere proliferation (P<0.01) in the primary screen
# [6] = yes/no: significantly inhibited neurosphere proliferation (P<0.01) in primary screen
# [7] = yes/no: significantly inhibited neurosphere proliferation (P<0.01) in the primary screen
# [8] = LOPAC library screen at 3 μM, secondary neurosphere cultures, MTT
# [9] = LOPAC screen, neurosphere MTT proliferation, 3 μM, day 7
smiles,measurement,setting,value
CCn1cc(C(=O)O)c(=O)c2cc3c(cc21)OCO3 [Oxolinic acid],Z Score,[1],0.9179
same,Z score,[2],0.918
same,Activity,[3],no
C[N+](C)(C)CC#CCN1CCCC1=O [Oxotremorine methiodide],Z Score,,−0.7002
same,Z score,[2],−0.700
same,Activity,[3],no
CCN(CC)CC#CCOC(=O)C(O)(c1ccccc1)C1CCCCC1 (centres unmarked) [Oxybutynin Chloride],Activity,,no
same,Z Score,[1],0.708
same,Z score,[2],0.708
Cc1cc(C(C)(C)C)c(O)c(C)c1CC1=NCCN1 [Oxymetazoline hydrochloride],Z Score,[4],−2.72
same,Z score,[2],−2.720
same,Activity,[5],yes
"COc1cccc(-c2cc(=O)c3ccccc3o2)c1N [PD 98,059]",Activity,,no
same,Z Score,,0.9027
same,Z score,[2],0.903
"Cc1cccc(C(=O)NCN2CCN(c3ccccc3C#N)CC2)c1.O=C(O)/C=C\C(=O)O [PD 168,077 maleate]",Z Score,,−1.516
same,Z score,[2],−1.516
same,Activity,[3],no
"N=C1Sc2ccccc2C2=NCCCN12 [PD 404,182]",Z Score,,0.09055
same,Z score,[2],0.091
same,Activity,[3],no
CCC(C)N(C)C(=O)c1cc2ccccc2c(-c2ccccc2Cl)n1 (centres unmarked) [PK 11195],Z Score,"168 h, 3 µM",−0.4676
same,Z score,"168 h, 3 µM",−0.468
same,Activity,[6],no
Cc1nc(N=Nc2ccc(S(=O)(=O)O)cc2S(=O)(=O)O)c(COP(=O)(O)O)c(C=O)c1O [PPADS],Z Score,,1.106
same,Z score,[2],1.106
same,Activity,[3],no
Cc1nc(N=Nc2cc(S(=O)(=O)[O-])c3cc([N+](=O)[O-])cc(S(=O)(=O)[O-])c3c2)c(COP(=O)([O-])[O-])c(C=O)c1O.[Na+].[Na+].[Na+].[Na+] [PPNDS tetrasodium],Z Score,,−2.067
same,Z score,[2],−2.067
same,Activity,[3],no
O=C(OCCN1CCOCC1)C1(c2ccccc2)CCCCC1 [PRE-084],Z Score,,1.311
same,Z score,[2],1.311
same,Activity,[7],no
CCCCCCCCCCCCCCCC(=O)NCCO [Palmitoylethanolamide],Activity,,no
same,Z Score,[8],−0.9134
same,Z score,[2],−0.913
CC(=O)O[C@H]1C[C@@H]2CC[C@@H]3[C@H](CC[C@@]4(C)[C@H]3C[C@H]([N+]3(C)CCCCC3)[C@@H]4OC(C)=O)[C@@]2(C)C[C@@H]1[N+]1(C)CCCCC1 [Pancuronium bromide],Z Score,[1],0.4077
same,Z score,[2],0.408
same,Activity,[3],no
COc1ccc(Cc2nccc3cc(OC)c(OC)cc23)cc1OC [Papaverine hydrochloride],Z Score,[8],−0.2992
same,Z score,[2],−0.299
same,Activity,[3],no
NC[C@@H]1O[C@H](O[C@H]2[C@@H](O)[C@H](O[C@@H]3[C@@H](O)[C@H](N)C[C@H](N)[C@H]3O[C@H]3O[C@H](CO)[C@@H](O)[C@H](O)[C@H]3N)O[C@@H]2CO)[C@H](N)[C@@H](O)[C@@H]1O.O=S(=O)(O)O [Paramomycin sulfate],Z score,[2],0.821
same,Activity,[3],no
C#CCN(C)Cc1ccccc1 [Pargyline hydrochloride],Z Score,[8],−0.2794
same,Z score,[2],−0.279
same,Activity,[3],no
NC[C@@H]1O[C@H](O[C@H]2[C@@H](O)[C@H](O[C@@H]3[C@@H](O)[C@H](N)C[C@H](N)[C@H]3O[C@H]3O[C@H](CO)[C@@H](O)[C@H](O)[C@H]3N)O[C@@H]2CO)[C@H](N)[C@@H](O)[C@@H]1O [Paromomycin sulfate],Z Score,[1],0.821
CN1C(C)(C)CCCC1(C)C [Pempidine tartrate],Z Score,[4],−1.719
same,Z score,[2],−1.719
same,Activity,[5],no
"N=C(N)c1ccc(OCCCCCOc2ccc(C(=N)N)cc2)cc1 [Pentamidine (32), Pentamidine, reference compound]",Activity,,yes
same,Z Score,[4],−11.27
same,Z score,[2],−11.274
C[N+]1(CCCCC[N+]2(C)CCCC2)CCCC1.O=C([O-])C(O)C(O)C(=O)O.O=C([O-])C(O)C(O)C(=O)O [Pentolinium di[L(+)-tartrate]],Z Score,[1],0.1662
same,Z score,[2],0.166
same,Activity,[3],no
CC(=O)CCCCn1c(=O)c2c(ncn2C)n(C)c1=O [Pentoxifylline],Z Score,[4],−1.637
same,Z score,[2],−1.637
same,Activity,[3],no
C1CCc2nnnn2CC1 [Pentylenetetrazole],Z Score,[8],−0.9274
same,Z score,[2],−0.927
same,Activity,[5],no
CCCN1C[C@H](CSC)C[C@@H]2c3cccc4[nH]cc(c34)C[C@H]21 [Pergolide methanesulfonate],Z Score,[4],−2.657
same,Z score,[2],−2.657
same,Activity,[7],yes
"OCCN1CCN(CCCN2c3ccccc3Sc3ccc(Cl)cc32)CC1 [Perphenazine (26), Perphenazine, reference compound]",Z Score,[4],−11.06
same,Z score,[2],−11.065
same,Activity,[7],yes
NCC(CP(=O)(O)O)c1ccc(Cl)cc1 (centres unmarked) [Phaclofen],Z Score,,0.9701
same,Z score,[2],0.970
same,Activity,[3],no
NC(=Nc1ccccc1)NC(=O)c1nc(Cl)c(N)nc1N [Phenamil methanesulfonate],Z Score,[1],1.485
same,Z score,[2],1.485
same,Activity,[7],no
NNCCc1ccccc1 [Phenelzine sulfate],Z Score,[4],−1.536
same,Z score,[2],−1.536
same,Activity,[3],no
CN(C)CCC(c1ccccc1)c1ccccn1 (centres unmarked) [Pheniramine maleate],Z Score,[8],−0.2062
same,Z score,[2],−0.206
same,Activity,[7],no
CC(COc1ccccc1)N(CCCl)Cc1ccccc1 (centres unmarked) [Phenoxybenzamine hydrochloride],Z Score,,−1.512
same,Z score,[9],−1.512
same,Activity,[6],no
Cc1ccc(N(CC2=NCCN2)c2cccc(O)c2)cc1 [Phentolamine mesylate],Z Score,"168 h, 3 µM",−0.3191
same,Z score,"168 h, 3 µM",−0.319
same,Activity,[3],no
CCCCC1C(=O)N(c2ccccc2)N(c2ccccc2)C1=O [Phenylbutazone],Z Score,[1],0.7902
same,Z score,[2],0.790
CNC[C@H](O)c1cccc(O)c1 [Phenylephrine hydrochloride],Activity,,no
same,Z Score,[4],−1.257
same,Z score,[2],−1.257
O=C1NC(=O)C(c2ccccc2)(c2ccccc2)N1 [Phenytoin sodium],Z Score,[8],−0.2166
same,Z score,[9],−0.217
same,Activity,[6],no
O=C(CCc1ccc(O)cc1)c1c(O)cc(O)cc1O [Phloretin],Z Score,"168 h, 3 µM",0.9165
same,Z score,"168 h, 3 µM",0.916
CCCCCCCCCCCCCC(=O)O[C@@H]1[C@@H](C)[C@@]2(O)[C@@H](C=C(CO)C[C@]3(O)C(=O)C(C)=C[C@@H]23)[C@@H]2C(C)(C)[C@]12OC(C)=O [Phorbol 12-myristate 13-acetate],Z Score,,−0.265
same,Z score,[2],−0.265
same,Activity,[3],no
C[C@@H]1O[C@@H]1P(=O)([O-])[O-].[Na+].[Na+] [Phosphomycin disodium],Z Score,[4],−1.402
same,Z score,[2],−1.402
same,Activity,[5],no
O=C(O)CP(=O)(O)O [Phosphonoacetic acid],Z Score,[8],−0.8885
same,Z score,[2],−0.888
same,Activity,[3],no
CC(C)C[C@H](NP(=O)(O)O[C@@H]1O[C@@H](C)[C@H](O)[C@@H](O)[C@H]1O)C(=O)N[C@@H](Cc1c[nH]c2ccccc12)C(=O)O [Phosphoramidon disodium],Z Score,"168 h, 3 µM",−0.5097
same,Z score,"168 h, 3 µM",−0.510
same,Activity,[3],no
NC(=O)c1ccccc1C(=O)N[C@@H](CCC(=O)O)C(=O)O.[Na].[Na].[Na] [Phthalamoyl-L-glutamic acid trisodium],Z Score,"168 h, 3 µM",0.2509
same,Z score,"168 h, 3 µM",0.251
same,Activity,[3],no
Oc1cc(O)cc(/C=C/c2ccc(O)c(O)c2)c1 [Piceatannol],Z Score,"168 h, 3 µM",0.5958
same,Z score,"168 h, 3 µM",0.596
COc1ccc(C(=O)NCc2cccnc2)cc1C(=O)NCc1cccnc1 [Picotamide],Z Score,"LOPAC library screen at 3 μM, MTT, secondary neurosphere cultures, screened in singlets",1.736
same,Z score,[2],1.736
same,Activity,[3],no
CC[C@@H]1C(=O)OC[C@@H]1Cc1cncn1C [Pilocarpine nitrate],Z Score,"168 h, 3 µM",−1.213
same,Z score,"168 h, 3 µM",−1.213
same,Activity,[5],no
O=c1[nH]c2ccccc2n1C1CCN(CCCC(c2ccc(F)cc2)c2ccc(F)cc2)CC1 [Pimozide],Z Score,[8],−0.2323
same,Z score,[2],−0.232
CC(N/C(=N\C#N)Nc1ccncc1)C(C)(C)C (centres unmarked) [Pinacidil],Z Score,[4],−2.117
same,Z score,[2],−2.117
same,Activity,[3],no
CC(C)NCC(O)COc1cccc2[nH]ccc12 (centres unmarked) [Pindolol],Z Score,[1],−0.07895
same,Z score,[2],−0.079
same,Activity,[3],no
O=S(=O)(O)C1CCNCC1 [Piperidine-4-sulphonic acid],Z Score,"168 h, 3 µM",−0.4238
same,Z score,"168 h, 3 µM",−0.424
same,Activity,[3],no
NC(=O)CN1CCCC1=O [Piracetam],Z Score,[8],−0.3758
same,Z score,[2],−0.376
same,Activity,[5],no
Cc1nc2ccccn2c(=O)c1CCN1CCC(C(=O)c2ccc(F)cc2)CC1 [Pirenperone],Z Score,[1],0.2279
same,Z score,[2],0.228
same,Activity,[7],no
CN1CCN(CC(=O)N2c3ccccc3C(=O)Nc3cccnc32)CC1 [Pirenzepine dihydrochloride],Z score,"168 h, 3 µM",−0.545
same,Activity,[3],no
CN1CCN(CC(=O)N2c3ccccc3C(=O)Nc3cccnc32)CC1.Cl.Cl [Pireuzepine dihydrochloride],Z Score,,−0.545
Cc1ccc(=O)n(-c2ccccc2)c1 [Pirfenidone],Z Score,[4],−1.482
same,Z score,[2],−1.482
same,Activity,[3],no
CN1C(C(=O)Nc2ccccn2)=C(O)c2ccccc2S1(=O)=O [Piroxicam],Z Score,[1],0.2527
same,Z score,[2],0.253
same,Activity,[5],no
